Data as given in patent publication US10183938B2, “Geminal substituted quinuclidine amide compounds as agonists of α-7 nicotonic acetylcholine receptors” (AXOVANT SCIENCES GMBH, priority 2014, dated 2019).
Where a name gives a salt, the structure may show the parent alone. Read-outs that look alike come from different tables or passages of the source.

Tests used:
[1] = molecular target: human α7 nAChRs transiently expressed in Xenopus laevis oocytes (Homo sapiens (Human), UniProt P36544); experiment: Oocyte electrophysiology screen (TEVC); type: cell-based; conditions: 0.01 mM test compound, peak current relative to 0.2 mM ACh
human α7 nAChRs transiently expressed in Xenopus laevis oocytes, sequence (P36544 23-502 limits assumed): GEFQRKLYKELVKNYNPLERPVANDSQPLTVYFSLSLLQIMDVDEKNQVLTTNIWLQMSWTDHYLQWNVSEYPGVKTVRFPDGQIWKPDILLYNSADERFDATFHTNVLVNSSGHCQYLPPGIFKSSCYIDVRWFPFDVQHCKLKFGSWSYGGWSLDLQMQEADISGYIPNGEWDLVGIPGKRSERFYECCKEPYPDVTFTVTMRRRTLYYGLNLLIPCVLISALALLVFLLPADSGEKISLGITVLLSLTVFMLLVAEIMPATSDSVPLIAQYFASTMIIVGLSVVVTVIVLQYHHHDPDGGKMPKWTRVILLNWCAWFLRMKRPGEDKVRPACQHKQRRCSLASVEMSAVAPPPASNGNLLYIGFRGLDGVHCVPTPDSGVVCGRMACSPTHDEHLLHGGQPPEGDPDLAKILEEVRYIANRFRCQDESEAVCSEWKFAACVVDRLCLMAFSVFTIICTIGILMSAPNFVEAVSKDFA
How it was run: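 Peak inward current from 0.01 mM compound, applied 30 s, is expressed relative to a 5 s 0.2 mM ACh reference response, in triplicate. Recordings used two-electrode voltage clamp at −80 mV in Xenopus oocytes with 90 s OR2 washes.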

[2] = molecular target: human 5-HT3 serotonin receptors (Homo sapiens (Human), UniProt P46098); experiment: [3H]BRL 43694 competition binding
human 5-HT3 serotonin receptors, sequence (P46098 24-478): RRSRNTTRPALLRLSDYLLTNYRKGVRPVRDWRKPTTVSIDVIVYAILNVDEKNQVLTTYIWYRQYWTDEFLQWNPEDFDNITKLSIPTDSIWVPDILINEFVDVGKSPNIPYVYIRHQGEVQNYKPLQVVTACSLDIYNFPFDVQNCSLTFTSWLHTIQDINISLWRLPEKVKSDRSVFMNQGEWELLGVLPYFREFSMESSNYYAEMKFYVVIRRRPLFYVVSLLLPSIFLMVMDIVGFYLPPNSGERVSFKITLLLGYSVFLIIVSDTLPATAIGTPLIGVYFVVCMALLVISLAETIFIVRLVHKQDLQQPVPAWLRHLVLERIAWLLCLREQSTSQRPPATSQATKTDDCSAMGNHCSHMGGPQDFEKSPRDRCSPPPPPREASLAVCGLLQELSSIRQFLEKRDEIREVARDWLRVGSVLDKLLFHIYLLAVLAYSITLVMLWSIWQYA

[3] = CHO cell membranes, [3H]BRL 43694, Cheng Prusoff, read-out: h-5HT3 Ki

| Compound | % ACh @ 10 μM Oocyte [1] [% ACh] | Ki [2] [µM] | Ki [2, 3] [µM] |
| --- | --- | --- | --- |
| O=C(NC1C2CCN(CC2)C12CC2)c1cc2cccc(Cl)c2s1 (single isomer, unassigned; enantiomer1) [56a, 7-chloro-N-(1′-azaspiro[cyclopropane-1,2′-bicyclo[2.2.2]octan]-3′-yl)benzo[b]thiophene-2-carboxamide-enantiomer1] | 1231 | 0.048 | – |
| O=C(NC1C2CCN(CC2)C12CC2)c1ccc2ccsc2c1 (single isomer, unassigned; enantiomer1) [58a, N-(1′-azaspiro[cyclopropane-1,2′-bicyclo[2.2.2]octan]-3′-yl)benzo[b]thiophene-6-carboxamide-enantiomer1] | 235 | – | 0.91 |
| O=C(NC1C2CCN(CC2)C12CC2)c1ccc2occc2c1 (single isomer, unassigned; enantiomer1) [59a, N-(1′-azaspiro[cyclopropane-1,2′-bicyclo[2.2.2]octan]-3′-yl)benzofuran-5-carboxamide-enantiomer1] | 823 | 6.5 | – |
| O=C(NC1C2CCN(CC2)C12CC2)c1cc2cccc(C(F)(F)F)c2s1 (single isomer, unassigned; enantiomer1) [60a, N-(1′-azaspiro[cyclopropane-1,2′-bicyclo[2.2.2]octan]-3′-yl)-7-(trifluoromethyl)benzo[b]thiophene-2-carboxamide-enantiomer1] | 501 | – | 1.01 |
| O=C(NC1C2CCN(CC2)C12CC2)c1cc2ccc(F)cc2s1 (single isomer, unassigned; enantiomer1) [61a, 6-fluoro-N-(1′-azaspiro[cyclopropane-1,2′-bicyclo[2.2.2]octan]-3′-yl)benzo[b]thiophene-2-carboxamide-enantiomer1] | 1493 | – | 1.5 |
| O=C(NC1C2CCN(CC2)C12CC2)c1cc2cc(F)ccc2s1 (single isomer, unassigned; enantiomer1) [64a, 5-fluoro-N-(1′-azaspiro[cyclopropane-1,2′-bicyclo[2.2.2]octan]-3′-yl)benzo[b]thiophene-2-carboxamide-enantiomer1] | 511 | 0.42 | – |
| CC1(C)[C@H](NC(=O)c2cc3cccc(Cl)c3s2)C2CCN1CC2 [(R)-3, (R)-7-chloro-N-(2,2-dimethylquinuclidin-3-yl)benzo[b]thiophene-2-carboxamide hydrochloride] | 304 | – | 0.27 |
| CC1(C)[C@H](NC(=O)c2cc3cccc(F)c3s2)C2CCN1CC2 [(R)-4, (R)—N-(2,2-dimethylquinuclidin-3-yl)-7-fluoro-benzo[b]thiophene-2-carboxamide hydrochloride] | 1060 | – | 0.87 |
| CC1(C)[C@H](NC(=O)c2ccc3ccsc3c2)C2CCN1CC2 [(R)-5, (R)—N-(2,2-dimethylquinuclidin-3-yl)benzo[b]thiophene-6-carboxamide hydrochloride] | 282 | – | 1.9 |
| CC1(C)[C@H](NC(=O)c2ccc3occc3c2)C2CCN1CC2 [(R)-6, (R)—N-(2,2-dimethylquinuclidin-3-yl)benzofuran-5-carboxamide hydrochloride] | 374 | – | > 10 |
| CC1(C)[C@H](NC(=O)c2cc3cccc(C(F)(F)F)c3s2)C2CCN1CC2 [(R)-7, (R)—N-(2,2-dimethylquinuclidin-3-yl)-7-(trifluoromethyl)benzo[b]thiophene-2-carboxamide hydrochloride] | 466 | – | 3.4 |
| CC1(C)[C@H](NC(=O)c2cc3ccc(F)cc3s2)C2CCN1CC2 [(R)-8, (R)—N-(2,2-dimethylquinuclidin-3-yl)-6-fluorobenzo[b]thiophene-2-carboxamide hydrochloride] | 480 | – | 6.5 |
| CC1(C)[C@H](NC(=O)c2cc3ccc(C#N)cc3s2)C2CCN1CC2 [(R)-9, (R)-6-cyano-N-(2,2-dimethylquinuclidin-3-yl)benzo[b]thiophene-2-carboxamide hydrochloride] | 2 | – | > 10 |
| CC1(C)[C@H](NC(=O)c2cc3ccc(C(F)(F)F)cc3s2)C2CCN1CC2 [(R)-10, (R)—N-(2,2-dimethylquinuclidin-3-yl)-6-(trifluoromethyl)benzo[b]thiophene-2-carboxamide hydrochloride] | 1 | – | > 10 |
| CC1(C)[C@H](NC(=O)c2cc3cc(F)ccc3s2)C2CCN1CC2 [(R)-11, (R)—N-(2,2-dimethylquinuclidin-3-yl)-5-fluorobenzo[b]thiophene-2-carboxamide hydrochloride] | 552 | – | 1.7 |
| CC1(C)[C@H](NC(=O)c2cc3cc(Cl)ccc3s2)C2CCN1CC2 [(R)-13, (R)-5-chloro-N-(2,2-dimethylquinuclidin-3-yl)benzo[b]thiophene-2-carboxamide hydrochloride] | 132 | – | 2.1 |

| Compound | % ACh @ 10 μM Oocyte [1] [% ACh] | Ki [2] [µM] | Ki [2, 3] [µM] |
| --- | --- | --- | --- |
| CC1(C)[C@H](NC(=O)c2cc3cc(Cl)c(Cl)cc3s2)C2CCN1CC2 [(R)-14, (R)-5,6-dichloro-N-(2,2-dimethylquinuclidin-3-yl)benzo[b]thiophene-2-carboxamide hydrochloride] | 3 | – | > 10 |
| Cc1ccc2cc(C(=O)N[C@@H]3C4CCN(CC4)C3(C)C)sc2c1 [(R)-15, (R)—N-(2,2-dimethylquinuclidin-3-yl)-6-methylbenzo[b]thiophene-2-carboxamide hydrochloride] | 539 | – | > 10 |
| Cc1ccc2sc(C(=O)N[C@@H]3C4CCN(CC4)C3(C)C)cc2c1 [(R)-16, (R)—N-(2,2-dimethylquinuclidin-3-yl)-5-methylbenzo[b]thiophene-2-carboxamide hydrochloride] | 74 | – | 2.5 |
| CC1(C)[C@H](NC(=O)c2cc3cc(C(F)(F)F)ccc3s2)C2CCN1CC2 [(R)-17, (R)—N-(2,2-dimethylquinuclidin-3-yl)-5-(trifluoromethyl)benzo[b]thiophene-2-carboxamide hydrochloride] | 0 | – | > 10 |
| CC1(C)[C@H](NC(=O)c2cc3ccc(C4CC4)cc3s2)C2CCN1CC2 [(R)-18, (R)-6-cyclopropyl-N-(2,2-dimethylquinuclidin-3-yl)benzo[b]thiophene-2-carboxamide hydrochloride] | 422 | – | > 10 |
| CC1(C)[C@H](NC(=O)c2cc3cc(C4CC4)ccc3s2)C2CCN1CC2 [(R)-19, (R)-5-cyclopropyl-N-(2,2-dimethylquinuclidin-3-yl)benzo[b]thiophene-2-carboxamide hydrochloride] | 149 | – | 1.6 |
| COc1ccc2cc(C(=O)N[C@@H]3C4CCN(CC4)C3(C)C)sc2c1 [(R)-20, (R)—N-(2,2-dimethylquinuclidin-3-yl)-6-methoxybenzo[b]thiophene-2-carboxamide hydrochloride] | 558 | – | > 10 |
| CC1(C)[C@H](NC(=O)c2cc3ccoc3cn2)C2CCN1CC2 [(R)-22, (R)—N-(2,2-dimethylquinuclidin-3-yl)furo[2,3-c]pyridine-5-carboxamide hydrochloride] | 456 | – | 6.5 |
| CC1(C)[C@H](NC(=O)c2cc3c(cn2)OCCO3)C2CCN1CC2 [(R)-23, (R)—N-(2,2-dimethylquinuclidin-3-yl)-2,3-dihydro-[1,4]dioxino[2,3-c]pyridine-7-carboxamide hydrochloride] | 82 | – | > 10 |
| Cc1ccc2cc(C(=O)N[C@@H]3C4CCN(CC4)C34CC4)sc2c1C#N [(R)-198, (R)-7-cyano-6-methyl-N-(1′-azaspiro[cyclopropane-1,2′-bicyclo[2.2.2]octan]-3′-yl)benzo[b]thiophene-2-carboxamide hydrochloride] | – | – | > 10 |
| COCc1cccc2cc(C(=O)N[C@@H]3C4CCN(CC4)C34CC4)sc12 [(R)-199, (R)-7-(methoxymethyl)-N-(1′-azaspiro[cyclopropane-1,2′-bicyclo[2.2.2]octan]-3′-yl)benzo[b]thiophene-2-carboxamide hydrochloride] | – | – | 0.58 |
| O=C(N[C@@H]1C2CCN(CC2)C12CC2)c1cc2ccc3c(c2s1)OCCC3 [(R)-201, (R)—N-(1′-azaspiro[cyclopropane-1,2′-bicyclo[2.2.2]octan]-3′-yl)-3,4-dihydro-2H-thieno[3,2-h]chromene-8-carboxamide hydrochloride] | – | – | 3.6 |
| O=C(N[C@@H]1C2CCN(CC2)C12CC2)c1ccc2cc(Cl)sc2c1 [(R)-203, (R)-2-chloro-N-(1′-azaspiro[cyclopropane-1,2′-bicyclo[2.2.2]octan]-3′-yl)benzo[b]thiophene-6-carboxamide hydrochloride] | – | – | 2.3 |
| O=C(N[C@@H]1C2CCN(CC2)C12CC2)c1cc2ccc3c(c2s1)CCCO3 [(R)-204, (R)—N-(1′-azaspiro[cyclopropane-1,2′-bicyclo[2.2.2]octan]-3′-yl)-8,9-dihydro-7H-thieno[2,3-f]chromene-2-carboxamide hydrochloride] | – | – | > 10 |
| Cc1c(Cl)ccc2cc(C(=O)N[C@@H]3C4CCN(CC4)C34CC4)sc12 [(R)-205, (R)-6-chloro-7-methyl-N-(1′-azaspiro[cyclopropane-1,2′-bicyclo[2.2.2]octan]-3′-yl)benzo[b]thiophene-2-carboxamide hydrochloride] | – | – | 2.6 |
| COc1c(C2CC2)ccc2cc(C(=O)N[C@@H]3C4CCN(CC4)C34CC4)sc12 [(R)-262, (R)-6-cyclopropyl-7-methoxy-N-(1′-azaspiro[cyclopropane-1,2′-bicyclo[2.2.2]octan]-3′-yl)benzo[b]thiophene-2-carboxamide hydrochloride] | – | – | > 10 |
